We go through 23 compounds from patent publication US10407440B2, “Therapeutic agent for motor disorders” (KYOWA HAKKO KIRIN CO., LTD., priority 2009, dated 2019).

The target in experiment [1] is T1, human adenosine A2A receptor (Homo sapiens, UniProt P29274).
T1 construct: host or cells: HEK-293 cells (membranes)
Briefly: Adenosine A2A receptor binding test (3H-CGS21680 binding). To be noted: compound at 100 nmol/L; Table 2, measured by Ricerca Biosciences, LLC; read-out: Inhibitory rate for human adenosine A2A receptor binding (3H-CGS21680 binding). An excerpt: Specifically, for example, human recombinant receptors are expressed in HEK-293 cells.
The inhibitory rate can be calculated by the following equation.

The target in experiment [2] is T2, human adenosine A1 receptor (Homo sapiens, UniProt P30542).
T2 construct: host or cells: CHO cells (membranes)
T2 sequence (P30542 1-326): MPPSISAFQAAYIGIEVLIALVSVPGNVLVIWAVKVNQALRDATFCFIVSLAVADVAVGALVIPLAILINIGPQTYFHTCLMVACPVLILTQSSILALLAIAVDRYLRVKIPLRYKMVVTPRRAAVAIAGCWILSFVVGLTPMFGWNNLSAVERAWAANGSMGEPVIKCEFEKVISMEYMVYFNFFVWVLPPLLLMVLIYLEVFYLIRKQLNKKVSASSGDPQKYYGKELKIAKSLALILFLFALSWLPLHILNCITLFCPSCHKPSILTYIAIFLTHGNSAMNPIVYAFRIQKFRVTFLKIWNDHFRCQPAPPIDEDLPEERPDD
Briefly: Adenosine A1 receptor binding test (3H-DPCPX binding). The note with it: compound at 100 nmol/L; Table 2, measured by Ricerca Biosciences, LLC; read-out: Inhibitory rate for human adenosine A1 receptor binding (3H-DPCPX binding). From the text:
Specifically, for example, human A1 receptor-expressing CHO cell membranes are used, and, as the labeled compound, for example, tritium-labeled DPCPX (1,3-dipropyl-8-cyclopentylxanthine) is used. The amount of non-specific binding can be determined by measuring the ^3H-DPCPX bound radioactivity in the presence of, for example, 100 μmol/L of R(−)-PIA((−)-N^6-2-phenylisopropyl adenosine).

T1 sequence (P29274 whole entry): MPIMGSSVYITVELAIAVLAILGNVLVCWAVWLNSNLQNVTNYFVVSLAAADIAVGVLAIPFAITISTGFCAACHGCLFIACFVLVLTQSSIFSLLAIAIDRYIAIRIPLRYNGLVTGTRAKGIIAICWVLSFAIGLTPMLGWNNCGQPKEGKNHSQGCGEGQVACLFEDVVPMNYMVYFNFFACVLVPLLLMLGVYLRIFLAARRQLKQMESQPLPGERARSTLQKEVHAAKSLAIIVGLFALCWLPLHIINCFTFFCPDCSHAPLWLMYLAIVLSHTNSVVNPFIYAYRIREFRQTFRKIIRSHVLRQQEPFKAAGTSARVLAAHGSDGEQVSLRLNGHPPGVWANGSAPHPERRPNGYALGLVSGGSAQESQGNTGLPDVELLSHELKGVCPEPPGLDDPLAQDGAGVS

As to `O=C(Nc1nc(-c2ccoc2)c(C(=O)C2CCOCC2)s1)c1cnc2c(c1)CCC2` [(IAA), N-[4-(3-Furyl)-5-(tetrahydropyran-4-carbonyl)thiazol-2-yl]-6,7-dihydro-5H-cyclopenta[b]pyridine-3-carboxamide], the inhibition at 0.1 µM came to 98% in experiment [1] and 9% in experiment [2].

`C=Cc1ccc(C(=O)Nc2nc(-c3ccco3)c(C(=O)C3CCOCC3)s2)cn1` [(IE), N-[4-(2-Furyl)-5-(tetrahydropyran-4-carbonyl)thiazol-2-yl]-6-vinylpyridine-3-carboxamide]: the inhibition at 0.1 µM in experiment [1] was 93%; in experiment [2], 33%.

For the compound `O=C(Cc1cccnc1)Nc1nc(-c2ccco2)c(C(=O)C2CCOCC2)s1` [(IF), N-[4-(2-Furyl)-5-(tetrahydropyran-4-carbonyl)thiazol-2-yl]-2-(pyridin-3-yl)acetamide], the inhibition at 0.1 µM was determined as 107% in experiment [1] and 50% in experiment [2].

In the case of `O=C(Nc1nc(-c2ccco2)c(C(=O)C2CCOCC2)s1)c1ccc[nH]1` [(IG), N-[4-(2-Furyl)-5-(tetrahydropyran-4-carbonyl)thiazol-2-yl]-1H-pyrrole-2-carboxamide], the inhibition at 0.1 µM came to 102% in experiment [1] and 91% in experiment [2].

Take `O=C(Nc1nc(-c2ccco2)c(C(=O)C2CCOCC2)s1)c1cccc2[nH]ccc12` [(IH), N-[4-(2-Furyl)-5-(tetrahydropyran-4-carbonyl)thiazol-2-yl]-1H-indole-4-carboxamide]: the inhibition at 0.1 µM came out at 98% in experiment [1] and 67% in experiment [2].

Turning to `O=C(Nc1nc(-c2ccco2)c(C(=O)C2CCOCC2)s1)c1ccnc(CN2CCOCC2)c1` [(II), N-[4-(2-Furyl)-5-(tetrahydropyran-4-carbonyl)thiazol-2-yl]-2-(morpholin-4-ylmethyl)pyridine-4-carboxamide], the values for the inhibition at 0.1 µM in experiment [1] and in experiment [2] were 85% and 19%, respectively.

As for `COCc1cc(C(=O)Nc2nc(-c3ccco3)c(C(=O)C3CCOCC3)s2)ccn1` [(IJ), N-[4-(2-Furyl)-5-(tetrahydropyran-4-carbonyl)thiazol-2-yl]-2-methoxymethylpyridine-4-carboxamide], the values for the inhibition at 0.1 µM in experiment [1] and in experiment [2] were 93% and 21%, respectively.

`CCOCc1cc(C(=O)Nc2nc(-c3ccco3)c(C(=O)C3CCOCC3)s2)ccn1` [(IK), 2-Ethoxymethyl-N-[4-(2-furyl)-5-(tetrahydropyran-4-carbonyl)thiazol-2-yl]pyridine-4-carboxamide]: the inhibition at 0.1 µM in experiment [1] was found to be 92%; in experiment [2] it was 24%.

On to `CC(C)OCc1cc(C(=O)Nc2nc(-c3ccco3)c(C(=O)C3CCOCC3)s2)ccn1` [(IL), N-[4-(2-Furyl)-5-(tetrahydropyran-4-carbonyl)thiazol-2-yl]-2-isopropoxymethylpyridine-4-carboxamide], for which the inhibition at 0.1 µM in experiment [1] came out at 85%; in experiment [2], 20%.

For `O=C(Nc1nc(-c2ccco2)c(C(=O)C2CCOCC2)s1)c1cnc2occc2c1` [(IM), N-[4-(2-Furyl)-5-(tetrahydropyran-4-carbonyl)thiazol-2-yl]furo[2,3-b]pyridine-5-carboxamide], the inhibition at 0.1 µM came to 98% in experiment [1] and 47% in experiment [2].

In the case of `O=C(Cc1ccccn1)Nc1nc(-c2ccco2)c(C(=O)C2CCOCC2)s1` [(IN), N-[4-(2-Furyl)-5-(tetrahydropyran-4-carbonyl)thiazol-2-yl]-2-(pyridin-2-yl)acetamide], the inhibition at 0.1 µM in experiment [1] was found to be 93%; in experiment [2], 21%.

Take `COc1ccc(C(=O)Nc2nc(-c3ccco3)c(C(=O)C3CCOCC3)s2)cn1` [(IO), N-[4-(2-Furyl)-5-(tetrahydropyran-4-carbonyl)thiazol-2-yl]-6-methoxypyridine-3-carboxamide]: the inhibition at 0.1 µM in experiment [1] was 97%; in experiment [2], 56%.

Turning to `O=C(Nc1nc(-c2ccco2)c(C(=O)C2CCOCC2)s1)c1cnc2ccccc2c1` [(IP), N-[4-(2-Furyl)-5-(tetrahydropyran-4-carbonyl)thiazol-2-yl]quinoline-3-carboxamide], the inhibition at 0.1 µM in experiment [1] came out at 98%; in experiment [2], 18%.

For the compound `Cc1cc(C(=O)Nc2nc(-c3ccco3)c(C(=O)C3CCOCC3)s2)cnc1C` [(IQ), N-[4-(2-Furyl)-5-(tetrahydropyran-4-carbonyl)thiazol-2-yl]-5,6-dimethylpyridine-3-carboxamide], the inhibition at 0.1 µM in experiment [1] is 100%; in experiment [2], 18%.

On to `CCc1cncc(C(=O)Nc2nc(-c3ccco3)c(C(=O)C3CCOCC3)s2)c1` [(IR), 5-Ethyl-N-[4-(2-furyl)-5-(tetrahydropyran-4-carbonyl)thiazol-2-yl]pyridine-3-carboxamide], for which the inhibition at 0.1 µM in experiment [1] is 107%; in experiment [2] it was 30%.

On to `O=C(Nc1nc(-c2ccco2)c(C(=O)C2CCOCC2)s1)c1cnc2c(c1)COCC2` [(IS), N-[4-(2-Furyl)-5-(tetrahydropyran-4-carbonyl)thiazol-2-yl]-7,8-dihydro-5H-pyrano[4,3-b]pyridine-3-carboxamide], for which the inhibition at 0.1 µM in experiment [1] was determined as 90%; in experiment [2] it was 10%.

Take `O=C(Nc1nc(-c2ccco2)c(C(=O)C2CCOCC2)s1)c1cnc2c(c1)CCC2` [(IT), N-[4-(2-Furyl)-5-(tetrahydropyran-4-carbonyl)thiazol-2-yl]-6,7-dihydro-5H-cyclopenta[b]pyridine-3-carboxamide]: the inhibition at 0.1 µM in experiment [1] was 91%; in experiment [2] it was 37%.

In the case of `O=C(Nc1nc(-c2ccco2)c(C(=O)C2CCOCC2)s1)c1cc2ccccc2[nH]1` [(IU), N-[4-(2-Furyl)-5-(tetrahydropyran-4-carbonyl)thiazol-2-yl]-1H-indole-2-carboxamide], the inhibition at 0.1 µM in experiment [1] came to 110%; in experiment [2] it was 36%.

With `CCc1ccc(C(=O)Nc2nc(-c3ccco3)c(C(=O)C3CCOCC3)s2)cn1` [(IV), 6-Ethyl-N-[4-(2-furyl)-5-(tetrahydropyran-4-carbonyl)thiazol-2-yl]pyridine-3-carboxamide], the inhibition at 0.1 µM is 98% in experiment [1] and 23% in experiment [2].

On to `CCCc1ccc(C(=O)Nc2nc(-c3ccco3)c(C(=O)C3CCOCC3)s2)cn1` [(IW), N-[4-(2-Furyl)-5-(tetrahydropyran-4-carbonyl)thiazol-2-yl]-6-propylpyridine-3-carboxamide], for which the inhibition at 0.1 µM in experiment [1] was 98%; in experiment [2] it was 23%.

Consider `O=C(Nc1nc(-c2ccco2)c(C(=O)C2CCOCC2)s1)c1cnc2c(c1)CSCC2` [(IX), N-[4-(2-Furyl)-5-(tetrahydropyran-4-carbonyl)thiazol-2-yl]-7,8-dihydro-5H-thiopyrano[4,3-b]pyridine-3-carboxamide], for which the inhibition at 0.1 µM in experiment [1] was 101%; in experiment [2], 18%.

In the case of `CC(=O)c1cc(C(=O)Nc2nc(-c3ccco3)c(C(=O)C3CCOCC3)s2)cnc1C` [(IY), 5-Acetyl-N-[4-(2-furyl)-5-(tetrahydropyran-4-carbonyl)thiazol-2-yl]-6-methylpyridine-3-carboxamide], the inhibition at 0.1 µM in experiment [1] is 97%; in experiment [2], 8%.

Regarding `CCc1cncc(C(=O)Nc2nc(-c3ccoc3)c(C(=O)C3CCOCC3)s2)c1` [(IZ), 5-Ethyl-N-[4-(3-furyl)-5-(tetrahydropyran-4-carbonyl)thiazol-2-yl]pyridine-3-carboxamide], the figures for the inhibition at 0.1 µM in experiment [1] and in experiment [2] were 102% and 21%, respectively.
